Experiments:
[1] = system: p53 tumor suppressor protein; experiment: Western blot of p53 and p21Cip1 induction in SH-SY5Y cells; type: cell-based, human
Procedure: (§1) Cell culture, cell extract preparation, SDS-PAGE, and western blot: SH-SY5Y pediatric neuroblastoma cells were purchased from ATCC. Pediatric glioblastoma multiforme cell line CHLA-200 was a generous gift from Dr. C. Patrick Reynolds (Texas Tech). Cancer cells were cultured in RPMI-1640 supplemented with 10% fetal bovine serum (FBS) and 1% Penicillin-Streptomycin. Cells were lysed with RIPA lysis buffer (Millipore) containing protease inhibitor cocktails (Roche). The protein concentration was measured by the Lowry method. Equal amounts of protein were subjected to SDS-PAGE and then transferred to a PVDF membrane. The proteins of interest were then probed with their respective antibodies.
(§2) SH-SY5Y cells were treated with 4Ei-10. SH-SY5Y is a neuroblastorna cell line that contains wild-type p53. 4Ei-10 is a small molecule translation inhibitor. It is a prodrug that is converted to N7-chlorophenoxyethyl guanosine monophosphate by the enzyme hHINT1 in the cell as shown in FIG. 1A. N7-chlorophenoxyethyl guanosine monophosphate competes with the cap structure for binding to eIf-4E, preventing the recruitment of the 5′ mRNA cap structure to the eIF-4F complex. […] A time-course study was then performed by treating SH-SY5Y cells with 4Ei-10 at a concentration of 100 μM.
To determine if the increase of the p53 tumor suppressor protein caused by 4Ei-10 is associated with enhanced p53 tumor suppressor protein synthesis, SH-SY5Y cells were treated with 4Ei-10 or 4Ei-10 plus cycloheximide, a protein synthesis (elongation) inhibitor.

SH-SY5Y cells [2] = experiment: Western blot of PARP cleavage (apoptosis) in SH-SY5Y cells; type: cell-based
Procedure: as §1
Since the p53 tumor suppressor protein is also a stimulator of cell apoptosis, the levels of PARP, a substrate of caspase 3, were examined in SH-SY5Y cells treated with 4Ei-10.

SH-SY5Y cells [3] = experiment: MTT cell viability assay; type: cell-based; details: different concentrations of 4Ei-10
Procedure: MTT cell viability assay: Cells were plated on a 24-well plate at 20,000 cells/well. After treatment with different reagents, the ratio of viable cells in each well was determined using a CellTiter Cell Proliferation kit (Promega) following the manufacturer's instructions. MTS solution was placed in each well at a ratio of 20 μL/100 μL of cell culture medium and incubated in a cell culture incubator for 2-3 hours. Absorbance was then measured at the wavelength of 492 nm with a microplate reader.
as §2

SH-SY5Y cells [4] = experiment: Flow cytometry assay of cell cycle distribution; type: cell-based
Procedure: Flow Cytometry Assay of Cell Cycle Distribution: Cells were seeded onto six well plates and were grown to sub-confluency. After treatment with or without 4Ei-10, cells were gently removed from the plates, washed once with cold PBS, and fixed with cold 70% ethanol. Cells were then stained with propidium iodide and subjected to flow cytometry (Becton Dickinson FACScalibur). The cell population at each phase was analyzed by the Modfit 2 software.
Since the p53 tumor suppressor protein is known to induce cell cycle arrest through induction of p21Cip1, a cell cycle distribution analysis was performed after treating SH-SY5Y cells with 4Ei-10.

IRES of p53 mRNA = experiment: Dual luciferase assay of p53 IRES activity (pR5UTRF reporter); type: cell-based; details: SH-SY5Y cells transfected with pR5UTRF, compared to untreated control cells
Procedure: Dual luciferase assays: Cells were lysed with passive lysis buffer (Promega). The dual-luciferase reporter assay (Promega) was then performed according to the manufacturer's instructions. Firefly and Renilla luciferase activities were determined with a Synergy 2 (BioTek) microplate reader.
To determine if the IRES activity of p53 mRNA increases during 4Ei-10 treatment when cap-dependent protein translation is halted by 4Ei-10, a bicistronic dual-luciferase reporter vector pR5UTRF, which contains the IRES sequence (−131 nt before 1st AUG of p53 ORF, accession number, NM_00546.4) of the p53 mRNA, was used to transfect SH-SY5Y cells. The IRES activity of p53 mRNA was then measured as the ratio of firefly (Fluc, controlled by the IRES sequence of p53 mRNA) to Renilla luciferase (Rluc) activity, Rluc is controlled by eIF4E and cap-dependent protein translational machinery and was used as an internal control for Fluc.

SH-SY5Y cells [5] = experiment: Cell Death ELISA analysis; type: cell-based; details: data not shown
CHLA-200 cells = experiment: Western blot of p53, p21Cip1 and PARP cleavage in CHLA-200 cells; type: cell-based
Procedure: as §1
The ability of 4Ei-10 to induce the p53 tumor suppressor protein in other type of cell lines was also examined. CHLA-200 is a children's glioblastoma multiforme cell line with wild-type p53. CHLA-200 cells were treated with 100 μM 4Ei-10.

SH-SY5Y cells [6] = experiment: Indirect immunofluorescence of phosphorylated H2A.X foci (DNA double strand breaks); type: cell-based; details: nucleus
Procedure: Indirect immunofluorescence: Chamber slides (8 wells, Lab-Tek) were treated with Poly-L-Lysine (Sigma) prior to seeding with SH-SY5Y cells at 8000 cells/well. Sub-confluent cells were treated with different reagents. After treatment, cells were briefly fixed in 3% paraformaldehyde solution and were then permeablized with 0.2% Triton X-100 in Tris-buffered saline. After permeabilization, cells were incubated with a phosphor-Histone H2A.X antibody (Millipore) and then with a Texas-Red conjugated secondary antibody (Jackson Laboratories) followed by DAPI staining. Images were recorded using a Nikon Eclipse TE2000-E confocal microscope at 60× magnification.
Foci formation of phosphorylated H2A.X, which recognizes DNA double strand breaks, was examined.

eIF4E and eIF4G = molecular target: T1, eIF4E and eIF4G (Homo sapiens, UniProt P06730); experiment: m7-GTP Sepharose bead pull-down of eIF4E and eIF4G; type: cell-based; details: SH-SY5Y cells, 100 μM, 24 hours
T1 construct: endogenous in cells; host or cells: SH-SY5Y
T1 sequence (P06730 2-217 limits assumed): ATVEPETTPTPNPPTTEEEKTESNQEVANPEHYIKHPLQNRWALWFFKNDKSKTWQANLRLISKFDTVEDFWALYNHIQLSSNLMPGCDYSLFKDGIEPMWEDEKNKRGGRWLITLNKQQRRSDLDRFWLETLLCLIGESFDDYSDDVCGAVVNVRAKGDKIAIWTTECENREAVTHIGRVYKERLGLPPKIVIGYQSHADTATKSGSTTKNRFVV
Procedure: SH-SY5Y cells were treated with 100 μM 4Ei-10 for 24 hours. After treatment, cells were lysed and equal amounts of proteins were incubated with m^7-GTP Sepharose beads. After incubation, beads were washed and mixed with SDS-PAGE loading buffer. The eluted proteins were then subjected to SDS-PAGE and transferred to a PVDF membrane. Bound eIF4G and eIF-4E were then detected with total eIF4E and total β-actin as input controls.

MCF-7 cells = experiment: Western blot of p53 and PARP cleavage in MCF-7 cells; type: cell-based; details: 4Ei-10 alone
Procedure: Sub-confluent MCF-7 cells were treated with either 100 μM 4Ei-10, 50 μM 4EGI-1, or both for 24 hours. After treatment, both floating and attached cells were collected and lysed. Equal amounts of protein were subjected to SDS-PAGE and transferred to a PVDF membrane. p53, PARP, cleaved PARP, and β-actin were detected with their respective antibodies.

[7] = system: cell lines of mantle cell lymphoma (MCL); details: cited from earlier work

With `O=C(O)C(Cc1ccccc1[N+](=O)[O-])=NNc1nc(-c2ccc(Cl)c(Cl)c2)cs1` (mixture of isomers) [4EGI-1, reference compound] the “induction of the p53 tumor suppressor protein, comparison of single agents and combination” value [1] was “stronger ability” and the “induction of cellular apoptosis, comparison of single agents and combination” value (SH-SY5Y cells [2]) was “stronger ability”.

For `CSCCOP(=O)(NCCc1c[nH]c2ccccc12)OC[C@H]1O[C@@H](n2c[n+](CCOc3ccc(Cl)cc3)c3c(=O)[nH]c(N)nc32)C(O)C1O` (stereo partly drawn) [4Ei-10], the “cell viability or cell proliferation” value (SH-SY5Y cells [3]) was “decrease in cell viability or cell proliferation in a concentration-dependent manner”, the “expression of p53 downstream target p21Cip1” value ([1]; 100 μM, time-course) was “increased expression” and the “p53 tumor suppressor protein accumulation” value ([1]; 100 μM, time-course) was “induced p53 tumor suppressor protein accumulation”. For the same molecule, the “p53 tumor suppressor protein accumulation with or without cycloheximide” value ([1]; protein synthesis inhibitor experiment) was “induction of the p53 tumor suppressor protein”, the “cell numbers at the G1 phase” value (SH-SY5Y cells [4]) was “substantial increase” and the “cell numbers at the S phase” value (SH-SY5Y cells [4]) was “dramatic decrease”. The “G1S ratio, an indicator of G1 cell cycle arrest” value (SH-SY5Y cells [4]; compared to control cells) was “two-fold increase”, the “IRES activity of p53 mRNA (ratio of Fluc/Rluc)” value (IRES of p53 mRNA) was “significantly increased” and the “cleaved PARP (cellular apoptosis)” value (SH-SY5Y cells [2]; 100 μM) was “increase of cleaved PARP”. For the same molecule, the “strength of apoptosis induced” value (SH-SY5Y cells [2]; 100 μM) was “relatively weak”, the “treatment time after which apoptosis could be seen” value (SH-SY5Y cells [2]; 100 μM, prolonged treatment) was ≥ 24 h and the “cell death or apoptosis” value (SH-SY5Y cells [5]) was “enhanced cell death or apoptosis”. For the same molecule, the cell apoptosis (CHLA-200 cells; CHLA200 cells) was “increased cell apoptosis”, the “induction of the p53 tumor suppressor protein” value (CHLA-200 cells; CHLA200 cells) was “Induction of the p53 tumor suppressor protein was observed” and the “PARP cleavage (apoptosis)” value (CHLA-200 cells; CHLA-200 cells, 100 μM) was “induced”. For the same molecule, the “p21Cip1 induction (cell cycle arrest)” value (CHLA-200 cells; CHLA-200 cells, 100 μM) was “induced”, the “foci formation of phosphorylated H2A.X (DNA double strand breaks)” value (SH-SY5Y cells [6]) was “not seen” and the “eIF4E bound to the m7-GTP Sepharose beads” value (eIF4E and eIF4G) was “decreased”. For the same molecule, the “eIF4G bound to the m7-GTP Sepharose beads” value (eIF4E and eIF4G) was “decreased”, the cell apoptosis (MCF-7 cells) was “increased cell apoptosis” and the “induction of the p53 tumor suppressor protein” value (MCF-7 cells) was “Induction of the p53 tumor suppressor protein was observed”. For the same molecule, the c-Myc expression [7] was “suppression of c-Myc expression”, the “expression of p27” value [7] was “induce the expression of p27” and the “cell proliferation and cell survival” value ([7]; multiple cell lines of mantle cell lymphoma) was “inhibits cell proliferation and cell survival”. For the same molecule, the chemosensitization ([7]; to doxorubicin, dexamethasone, and ibrutinib) was “enhanced chemosensitization”.

Reference: patent publication US11439656B2, “Pharmaceutical compounds and uses thereof” (Regents of the University of Minnesota, priority 2018, dated 2022)
